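Exposure lasted 48 hours, with cells grown in 96-well plates and compounds tested at five concentrations. GI50 marks 50% less growth.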 Calls of active or inactive are those of the source. Rule as the data show it: active = GI50 up to about 1.1 µM and inactive = higher.
How the values were obtained:
Assay in all cases: NCI tumour cell line growth inhibition, 48 h
786-0 = test system: 786-0
A498 = test system: A498
A549 = test system: A549
ACHN = test system: ACHN
BT-549 = test system: BT-549
CAKI-1 = test system: CAKI-1
CCRF-CEM = test system: CCRF-CEM
COLO 205 = test system: COLO 205
DLD-1 = test system: DLD-1
DMS-114 = test system: DMS-114
DMS-273 = test system: DMS-273
DU-145 = test system: DU-145
EKVX = test system: EKVX
HCC 2998 = test system: HCC 2998
HCT-116 = test system: HCT-116
HCT-15 = test system: HCT-15
HL-60 = test system: HL-60
HOP-18 = test system: HOP-18
HOP-62 = test system: HOP-62
HOP-92 = test system: HOP-92
HT-29 = test system: HT-29
Hs-578T = test system: Hs-578T
IGROV-1 = test system: IGROV-1
K562 = test system: K562
KM-20L2 = test system: KM-20L2
KM12 = test system: KM12
LOX IMVI = test system: LOX IMVI
LXFL 529 = test system: LXFL 529
M14 = test system: M14
M19-MEL = test system: M19-MEL
MCF7 = test system: MCF7
MDA-MB-231 = test system: MDA-MB-231
MDA-MB-435 = test system: MDA-MB-435
MDA-N = test system: MDA-N
MOLT-4 = test system: MOLT-4
Malme-3M = test system: Malme-3M
NCI-H226 = test system: NCI-H226
NCI-H23 = test system: NCI-H23
NCI-H460 = test system: NCI-H460
NCI-H522 = test system: NCI-H522
NCI/ADR-RES = test system: NCI/ADR-RES
OVCAR-3 = test system: OVCAR-3
OVCAR-4 = test system: OVCAR-4
OVCAR-5 = test system: OVCAR-5
OVCAR-8 = test system: OVCAR-8
PC-3 = test system: PC-3
RPMI-8226 = test system: RPMI-8226
RXF 393 = test system: RXF 393
RXF 631 = test system: RXF 631
SF-268 = test system: SF-268
SF-295 = test system: SF-295
SF-539 = test system: SF-539
SK-MEL-28 = test system: SK-MEL-28
SK-MEL-2 = test system: SK-MEL-2
SK-MEL-5 = test system: SK-MEL-5
SK-OV-3 = test system: SK-OV-3
SN12C = test system: SN12C
SNB-19 = test system: SNB-19
SNB-75 = test system: SNB-75
SNB-78 = test system: SNB-78
SR = test system: SR
SW-620 = test system: SW-620
T47D = test system: T47D
TK-10 = test system: TK-10
U-251 = test system: U-251
UACC-257 = test system: UACC-257
UACC-62 = test system: UACC-62
UO-31 = test system: UO-31
XF498 = test system: XF498

COc1cc(/C=C2\CCC(CN(C)C)C2=O)ccc1OC(=O)c1ccccc1 (centres undefined)
GI50 (786-0): 3.76 µM (inactive) | GI50 (A498): 18.3 µM (inactive) | GI50 (A549): 23.6 µM (inactive) | GI50 (ACHN): 15.3 µM (inactive) | GI50 (BT-549): 16.1 µM (inactive) | GI50 (CAKI-1): 17.1 µM (inactive) | GI50 (CCRF-CEM): 1.96 µM (inactive) | GI50 (COLO 205): 5.69 µM (inactive) | GI50 (DLD-1): 4.67 µM (inactive) | GI50 (DMS-114): 15.8 µM (inactive) | GI50 (DMS-273): 11.1 µM (inactive) | GI50 (DU-145): 16.3 µM (inactive) | GI50 (EKVX): 14.2 µM (inactive) | GI50 (HCC 2998): 16.3 µM (inactive) | GI50 (HCT-116): 6.68 µM (inactive) | GI50 (HCT-15): 8.17 µM | GI50 (HL-60): 1.91 µM (inactive) | GI50 (HOP-18): 16.9 µM (inactive) | GI50 (HOP-62): 16.3 µM (inactive) | GI50 (HOP-92): 17.4 µM (inactive) | GI50 (HT-29): 8.07 µM (inactive) | GI50 (Hs-578T): 8.02 µM (inactive) | GI50 (IGROV-1): 13.8 µM (inactive) | GI50 (K562): 2.32 µM (inactive) | GI50 (KM-20L2): 15.9 µM (inactive) | GI50 (KM12): 2.99 µM (inactive) | GI50 (LOX IMVI): 3.86 µM (inactive) | GI50 (LXFL 529): 2.88 µM (inactive) | GI50 (M14): 9.51 µM (inactive) | GI50 (M19-MEL): 8.57 µM (inactive) | GI50 (MCF7): 6.25 µM (inactive) | GI50 (MDA-MB-231): 5.47 µM (inactive) | GI50 (MDA-MB-435): 14.3 µM (inactive) | GI50 (MDA-N): 15.4 µM (inactive) | GI50 (MOLT-4): 2.28 µM (inactive) | GI50 (Malme-3M): 15.9 µM (inactive) | GI50 (NCI-H226): 18.2 µM (inactive) | GI50 (NCI-H23): 16.1 µM (inactive) | GI50 (NCI-H460): 19.3 µM (inactive) | GI50 (NCI-H522): 4 µM (inactive) | GI50 (NCI/ADR-RES): 16.5 µM (inactive) | GI50 (OVCAR-3): 8.91 µM (inactive) | GI50 (OVCAR-4): 12.4 µM (inactive) | GI50 (OVCAR-5): 18.8 µM (inactive) | GI50 (OVCAR-8): 8.59 µM (inactive) | GI50 (PC-3): 16.4 µM (inactive) | GI50 (RPMI-8226): 2.31 µM (inactive) | GI50 (RXF 393): 7.8 µM (inactive) | GI50 (RXF 631): 11.2 µM (inactive) | GI50 (SF-268): 12.3 µM (inactive) | GI50 (SF-295): 17.7 µM (inactive) | GI50 (SF-539): 14.1 µM (inactive) | GI50 (SK-MEL-28): 15.1 µM (inactive) | GI50 (SK-MEL-2): 17.9 µM (inactive) | GI50 (SK-MEL-5): 15.5 µM (inactive) | GI50 (SK-OV-3): 23.1 µM (inactive) | GI50 (SN12C): 10.8 µM (inactive) | GI50 (SNB-19): 11.4 µM (inactive) | GI50 (SNB-75): 16 µM (inactive) | GI50 (SNB-78): 19.2 µM (inactive) | GI50 (SR): 2.56 µM (inactive) | GI50 (SW-620): 5.07 µM (inactive) | GI50 (T47D): 3.76 µM (inactive) | GI50 (TK-10): 11.3 µM (inactive) | GI50 (U-251): 16.2 µM (inactive) | GI50 (UACC-257): 13.5 µM (inactive) | GI50 (UACC-62): 16.5 µM (inactive) | GI50 (UO-31): 16.3 µM (inactive) | GI50 (XF498): 20.3 µM (inactive)

From ChEMBL document CHEMBL1201862, “PubChem BioAssay data set” (2004)
